Test results reported in patent US20060069132A1, “Azolecarboxamide herbicides” (priority 2004, published 2006).

Assays:
lambsquarters = assay: Test B pre-/postemergence herbicide test; assay type: in vivo, Chenopodium album
Method in brief: (§1)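 Evaluation is visual, comparing treated with control plants on a scale where 0 means no effect and 100 means full control. Treatments were preemergence, or postemergence on seedlings 2–18 cm tall, and held 13–15 days in the greenhouse.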

pigweed = assay: Test B pre-/postemergence herbicide test; assay type: in vivo, Amaranthus retroflexus
Method in brief: as §1

corn = assay: Test B pre-/postemergence herbicide test; assay type: in vivo, Zea mays
Method in brief: as §1

morningglory = assay: Test B pre-/postemergence herbicide test; assay type: in vivo, Ipomoea coccinea
Method in brief: (§2)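 Herbicidal effect was judged by eye on a 0–100 scale after plants stood 13 to 15 days in the greenhouse following pre- or postemergence treatment with surfactant-containing formulations.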

large crabgrass = assay: Test B pre-/postemergence herbicide test; assay type: in vivo, Digitaria sanguinalis
Method in brief: as §1

blackgrass = assay: Test B postemergence herbicide test; assay type: in vivo, Alopecurus myosuroides; conditions: scale 0 (no effect) to 100 (complete control)
Method in brief: (§3)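 Treated at 2-leaf (paddy) or 1–4-leaf, 2–18 cm (postemergence); greenhouse 13–15 d; visual score vs control, 0 none to 100 complete control; dash = not tested.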

ducksalad [1] = assay: Test C flooded paddy test; assay type: in vivo, Heteranthera limosa
[2] = tested on: smallflower umbrella sedge; assay: Test C flooded paddy test; assay type: in vivo, Cyperus difformis
rice [3] = assay: Test C flooded paddy test; assay type: in vivo, Oryza sativa
Method in brief: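 Plants were grown to the 1- to 4-leaf stage (2–18 cm) and then treated postemergence, or grown to the 2-leaf stage for the flooded paddy test. They were held in a greenhouse for 12 to 14 days and then scored by eye against controls, where 0 is no effect and 100 is complete control.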

wild oat = assay: Test B postemergence herbicide test; assay type: in vivo, Avena fatua; conditions: scale 0 (no effect) to 100 (complete control)
Method in brief: (§4)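 After treating 2-leaf paddy plants or 2–18 cm postemergence plants (1 to 4 leaves) with formulated chemical, researchers kept them in a greenhouse for 13–15 days. Effects were judged visually versus controls: 0 indicates none, 100 total control.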

ducksalad [4] = assay: Test B flooded paddy test; assay type: in vivo, Heteranthera limosa; conditions: 1000 g ai/ha, visual rating, scale 0 to 100 (0 no effect, 100 complete control), 13 to 15 days
Method in brief: as §3

rice [5] = assay: Test B flooded paddy test; assay type: in vivo, Oryza sativa; conditions: 1000 g ai/ha, visual rating, scale 0 to 100 (0 no effect, 100 complete control), 13 to 15 days
Method in brief: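 Each value is a visual 0–100 response rating taken against controls 13 to 15 days after treatment in the greenhouse. Plants received formulated chemical postemergence at the 1- to 4-leaf stage or, in flooded paddy, at the 2-leaf stage.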

wheat = assay: Test B postemergence herbicide test; assay type: in vivo, Triticum aestivum; design: key to Wheat plant response rating: 0 = no effect, 100 = complete control; conditions: scale 0 (no effect) to 100 (complete control)
Method in brief: as §4

cocklebur = assay: Test B pre-/postemergence herbicide test; assay type: in vivo, Xanthium strumarium
Method in brief: as §2

rice [6] = assay: Test B pre-/postemergence herbicide test; assay type: in vivo, Oryza sativa; conditions: preemergence
Method in brief: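 Plants compared with untreated controls 13–15 days post-treatment and given a visual 0–100 injury score. Applications: preemergence to seeds; postemergence at 1- to 4-leaf (2–18 cm); paddy species flooded, 2-leaf stage. Vehicle non-phytotoxic, surfactant included.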

[7] = tested on: small flower umbrella sedge; assay: Test B flooded paddy test; assay type: in vivo, Cyperus difformis; conditions: 1000 g ai/ha, visual rating, scale 0 to 100 (0 no effect, 100 complete control), 13 to 15 days
Method in brief: as §3

barnyardgrass [8] = assay: Test B pre-/postemergence herbicide test; assay type: in vivo, Echinochloa crus-galli
Method in brief: as §2

barnyardgrass [9] = assay: Test B flooded paddy test; assay type: in vivo, Echinochloa crus-galli; conditions: 1000 g ai/ha, visual rating, scale 0 to 100 (0 no effect, 100 complete control), 13 to 15 days
Method in brief: as §3

velvetleaf = assay: Test B pre-/postemergence herbicide test; assay type: in vivo, Abutilon theophrasti
Method in brief: as §1

barnyardgrass [10] = assay: Test C flooded paddy test; assay type: in vivo, Echinochloa crus-galli
Method in brief: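 Weeds and wheat were sprayed after emergence, at a height of 2 to 18 cm (1–4 leaves), and paddy barnyardgrass was flooded and treated at two leaves. Assessment took place 12–14 days later in the greenhouse on a 0-to-100 visual control scale. A dash means no result was obtained.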

giant foxtail = assay: Test B pre-/postemergence herbicide test; assay type: in vivo, Setaria faberi
Method in brief: as §1

Surinam grass = assay: Test B pre-/postemergence herbicide test; assay type: in vivo, Urochloa decumbens
Method in brief: as §1

[11] = 500 g ai/ha, visual rating 0-100, 0 no effect, 100 complete control, preemergence
[12] = Postemergence, 500 g ai/ha, visual rating after 13 to 15 days, scale 0 (no effect) to 100 (complete control)
[13] = postemergence, 125 g ai/ha, visual rating, scale 0 (no effect) to 100 (complete control)
[14] = preemergence, 125 g ai/ha, 0 to 100 scale, 0 is no effect, 100 is complete control
[15] = Postemergence, 500 g ai/ha, visual rating after 13 to 15 days
[16] = postemergence, 125 g ai/ha, visual rating
[17] = 62 g ai/ha, scale 0 to 100 (0 no effect, 100 complete control)
[18] = 125 g ai/ha, scale of 0 to 100, 0 is no effect, 100 is complete control
[19] = 250 g ai/ha, scale of 0 to 100, 0 is no effect, 100 is complete control
[20] = 500 g ai/ha, visual rating after 12 to 14 days, scale 0 to 100 (0 no effect, 100 complete control)

CCn1nc(C(C)(C)C)cc1C(=O)Nc1ccc(OC)c(C(=O)OC(C)C)c1 [Compound 101]
Plant response rating, Lambsquarters (lambsquarters; [11]): 100
Plant response rating, Lambsquarters (lambsquarters; [12]): 90
Lambsquarters plant response rating (lambsquarters; [13]): 80
Plant response rating, Lambsquarters (lambsquarters; [14]): 100
Plant response rating, Pigweed (pigweed; [11]): 100
Plant response rating, Pigweed (pigweed; [12]): 90
Pigweed plant response rating (pigweed; [13]): 80
Plant response rating, Pigweed (pigweed; [14]): 100
Plant response rating, Corn (corn; [11]): 40
Plant response rating, Corn (corn; [12]): 40
Corn plant response rating (corn; [13]): 10
Plant response rating, Corn (corn; [14]): 20
Plant response rating, Morningglory (morningglory; [11]): 10
Plant response rating, Morningglory (morningglory; [12]): 10
Morningglory plant response rating (morningglory; [13]): 10
Plant response rating, Morningglory (morningglory; [14]): 10
Plant response rating, Crabgrass, Large (large crabgrass; [11]): 90
Plant response rating, Crabgrass, Large (large crabgrass; [12]): 20
Crabgrass, Large plant response rating (large crabgrass; [13]): 10
Plant response rating, Crabgrass, Large (large crabgrass; [14]): 50
Plant response rating, Blackgrass (blackgrass; [15]): 40
Blackgrass plant response rating (blackgrass; [16]): 20
Ducksalad plant response rating (ducksalad [1]; [17]): 0
Ducksalad plant response rating (ducksalad [1]; [18]): 0
Ducksalad plant response rating (ducksalad [1]; [19]): 40
Plant response rating, Ducksalad (ducksalad [1]; [20]): 75
Sedge, Umbrella plant response rating [2, 17]: 20
Sedge, Umbrella plant response rating [2, 18]: 75
Sedge, Umbrella plant response rating [2, 19]: 80
Plant response rating, Sedge, Umbrella [2, 20]: 90
Rice plant response rating (rice [3]; [17]): 0
Rice plant response rating (rice [3]; [18]): 0
Rice plant response rating (rice [3]; [19]): 0
Plant response rating, Rice (rice [3]; [20]): 25
Plant response rating, Oat, Wild (wild oat; [15]): 50
Oat, Wild plant response rating (wild oat; [16]): 30
Ducksalad plant response rating (ducksalad [4]): 90
Rice plant response rating (rice [5]): 80
Plant response rating, Wheat (wheat; [15]): 20
Wheat plant response rating (wheat; [16]): 10
Plant response rating, Cocklebur (cocklebur; [11]): 90
Plant response rating, Cocklebur (cocklebur; [12]): 80
Cocklebur plant response rating (cocklebur; [13]): 20
Plant response rating, Cocklebur (cocklebur; [14]): 0
Plant response rating, Rice (rice [6]; 500 g ai/ha, visual rating 0-100, 0 no effect, 100 complete control): 40
Plant response rating, Rice (rice [6]; 125 g ai/ha, 0 to 100 scale, 0 is no effect, 100 is complete control): 30
Sedge, Umbrella plant response rating [7]: 80
Plant response rating, Barnyardgrass (barnyardgrass [8]; [11]): 70
Plant response rating, Barnyardgrass (barnyardgrass [8]; [12]): 20
Barnyardgrass plant response rating (barnyardgrass [8]; [13]): 10
Plant response rating, Barnyardgrass (barnyardgrass [8]; [14]): 40
Barnyardgrass plant response rating (barnyardgrass [9]): 70
Plant response rating, Velvetleaf (velvetleaf; [11]): 50
Plant response rating, Velvetleaf (velvetleaf; [12]): 30
Velvetleaf plant response rating (velvetleaf; [13]): 20
Plant response rating, Velvetleaf (velvetleaf; [14]): 20
Barnyardgrass plant response rating (barnyardgrass [10]; [17]): 0
Barnyardgrass plant response rating (barnyardgrass [10]; [18]): 20
Barnyardgrass plant response rating (barnyardgrass [10]; [19]): 30
Plant response rating, Barnyardgrass (barnyardgrass [10]; [20]): 50
Plant response rating, Foxtail, Giant (giant foxtail; [11]): 60
Plant response rating, Foxtail, Giant (giant foxtail; [12]): 30
Foxtail, Giant plant response rating (giant foxtail; [13]): 20
Plant response rating, Foxtail, Giant (giant foxtail; [14]): 20
Plant response rating, Surinam Grass (Surinam grass; [11]): 30
Plant response rating, Surinam Grass (Surinam grass; [12]): 20
Surinam Grass plant response rating (Surinam grass; [13]): 10
Plant response rating, Surinam Grass (Surinam grass; [14]): 10
